Results reported in US12653827B2, “Methods of treating indolent systemic mastocytosis” (Telios Pharma Inc., priority 2024, dated 2026).
Several values for one entry are separate records, joined by “and”; a condition that tells them apart may be missing. Equal entries are not always repeated.

How the values were obtained:
[1] = test system: serum tryptase; assay: Serum tryptase in ISM patients; assay type: in vivo, human; conditions: 100 mg or 150 mg BID
Experimental: Also, blood samples were collected at the following timepoints: Cycle 1, Day 1: pre-dose (within 30 minutes prior to the morning dose), 0.5, 1.0, 2.0, 3.0, 4.0, and 6.0 hours (±15 minutes) post-morning dose. Cycle 1, Day 8: pre-dose (within 30 minutes prior to the morning dose) and 2 hours (±15 minutes) post-morning dose. Serum tryptase tests were conducted according to Example 14.
The measurement of serum tryptase can be followed to the procedure described in the literature (McMurray et al., Standardized indolent systemic mastocytosis evaluations across a health care system: implications for screening accuracy, Blood (2024) 144 (4): 408-419). Briefly, the procedure begins with proper patient preparation, avoiding recent physical activity or triggers that could cause mast cell activation. Venous blood samples, preferably drawn when the patient is not experiencing acute symptoms, are collected in serum separator tubes (SSTs) or plain red-top tubes, with approximately 5 mL of blood needed for analysis. After collection, the blood is allowed to clot at room temperature for 30-60 minutes before centrifugation for 10-15 minutes. The serum is then carefully separated from the cells and stored at 2-8° C. for short-term analysis or frozen at −20° C. or lower for long-term storage. […]

[2] = test system: IL-8, MCP-1, MIP-1a, IL-13 and IL-10; assay: Antigen-induced cytokine production in ISM-like and healthy mast cell conditions; assay type: cell-based, human; conditions: ISM-like mast cells; treated two hours, antigen four hours
Experimental: Human mast cells were derived from bone marrow CD34+ cells from six healthy donors for up to eight weeks by culturing CD34+ cells in StemSpan SFEM II (Stem Cell Technologies) supplemented with stem cell factor (SCF; 100 ng/mL; R&D System), IL-6 (R&D Systems), IL-3 (R&D Systems) and 1% penicillin/streptomycin (P/S; Gibco) for the first 10 days and in StemSpan SFEM II supplemented with SCF and IL-6 and 1% P/S for the remaining time in culture. […] Supernatant was collected and histamine levels were measured using a Histamine ELISA kit (Eagle Biosciences). […] Percent of activated mast cells was calculated as number of activated mast cells over the total number of mast cells.
Human mast cells were differentiated from bone marrow CD34+ cells from two healthy donors, cultured and sensitized in ISM-like and healthy mast cell conditions as set forth in Example 4, treated with Compound 128 for two hours and stimulated with antigen for four hours. Supernatant was collected and cytokine levels were measured using the BD Cytometric Bead Array (CBA) human soluble protein master buffer kit (Becton Dickinson) and BD CBA human soluble protein flex sets for IL-8, MCP-1, MIP-1a, IL-13 and IL-10 (Becton Dickinson). […]

[3] = test system: downstream signaling proteins; assay: Downstream signaling proteins in antigen-stimulated mast cells (FIG. 20); assay type: cell-based; conditions: mast cells stimulated with an antigen
[4] = Clinical study in ISM patients, total symptom score (ISM-TSAF, SISM-TSAF); assay type: in vivo, human; conditions: 100 mg or 150 mg BID
Experimental: Efficacy of Compound 128 will be evaluated among adult subjects diagnosed with ISM as defined by WHO diagnostic criteria. The subjects have moderate-to-severe symptoms based on minimum mean total symptom scores (TSS) of ISM-TSAF over the 14-day eligibility screening period for assessment of TSS of ISM-TSAF. Minimum baseline TSS of ISM-TSAF for eligibility is >28. Subjects will receive either 50, 75, 100 or 150 mg BID of Compound 128 plus best supportive care. Subject will be treated for twenty-four weeks and will be evaluated at twelve weeks and twenty-four weeks. Evaluation will be based on the 14-day rolling average TSS of ISM-TSAF or SISM-TSAF. The TSS of ISM-TSAF is based on patient reporting on eleven separate symptoms, measuring the severity of a broad range of mastocytosis-related symptoms over the prior 24 hours, based on a score from zero (no symptoms) to ten (worst possible symptoms experienced) scale for a TSS between 0-110. The eleven symptoms to be scored by the subject are fatigue, abdominal pain, diarrhea, skin spots, itching, flushing, brain fog, headache, dizziness and bone pain. The TSS of SISM-TSAF is based on patient reporting on nine separate symptoms based on a score from zero (no symptoms) to ten (worst possible symptoms experienced). The nine symptoms to be scored by the subject are muscle pain, runny nose, nasal congestion, wheezing, shortness of breath, throat itching, heart palpitations, difficulty concentrating, and diarrhea. The first eight items measure the severity of a broad range of mastocytosis-related symptoms over the prior 24 hours. Each of the first eight symptom is assessed on a 0 (None) to 10 (Worst Imaginable) scale for a TSS between 0-80. The 9th item measures incidence of diarrhea over the prior 24 hours. Endpoints will also be based on mean change in TSS of ISM-TSAF or SISM-TSAF based on 14-day average of patient-reported severity of ISM symptoms; mean change in serum tryptase level, KIT D816V VAF, change in best supportive care medications and change in number of anaphylactic episodes.
Five ISM patients have been treated with Compound 128 at 100 mg or 150 mg BID. At week 12, the TSS of ISM-TSAF is reduced by 28 points compared to the placebo group (FIG. 24), and the TSS of SISM-TSAF is reduced by 22.7 points, compared to the placebo (FIG. 25). In contrast, avapritinib 25 mg QD reduced the TSS of ISM-TSAF by 5.7 points at week 24 (FIG. 23). The average reduction of total symptom score of ISM-TSAF is 55% compared to the baseline while the average reduction of total symptom score of ISM-TSAF is 38% compared to the placebo group (FIG. 28).

SMILES: C=CC(=O)N1CCC(F)(CNc2ncnc(N)c2-c2ccc(Oc3ccccc3)cc2)CC1 [Compound 128, 1-(4-(((6-amino-5-(4-phenoxyphenyl)pyrimidin-4-yl)amino)methyl)-4-fluoropiperidin-1-yl)prop-2-en-1-one]
- reduction in serum tryptase [1]: effective in reducing serum tryptase levels
- IgE-mediated cytokine production [2]: inhibited
- activation of multiple downstream signaling proteins [3]: can be inhibited
- average reduction of total symptom score of ISM-TSAF compared to the placebo group [4]: 38%
- average reduction of total symptom score of ISM-TSAF compared to the baseline ([4]; 12-week treatment): 55%
- reduction of TSS of ISM-TSAF compared to the placebo group ([4]; week 12): 28.0 points and 28 points
- reduction of TSS of SISM-TSAF compared to the placebo ([4]; week 12): 22.7 points
